The test system of test [1] is TIPS EPSPS site mutation lines (T0-1, T0-5 and T0-7). Nature of the test: Glyphosate resistance verification in N6 culture medium, TIPS EPSPS site mutation lines. Type of test: in vivo, Oryza sativa L. japonica. cv. Nipponbare. The settings on record: N6 culture medium containing 1 mg/L glyphosate, recorded after 10 days, TIPS EPSPS mutant rice T0-1, T0-5, T0-7. The method, then: (§1) The three TIPS EPSPS site mutation lines (T0-1, T0-5 and T0-7) obtained from Example 4 and wild type rice (Oryza sativa L. japonica. cv. Nipponbare) plants were placed into an N6 culture medium containing 1 mg/L glyphosate, and cultured under the routine culture conditions. The resistance results were recorded after 10 days. Verification was carried out in more than 3 plants for each TIPS EPSPS site mutation line.

The test system of test [2] is wild type rice (Oryza sativa L. japonica. cv. Nipponbare) plants. Nature of the test: Glyphosate resistance verification in N6 culture medium, wild type rice plants. Type of test: in vivo. The settings on record: N6 culture medium containing 1 mg/L glyphosate, recorded after 10 days. The method, then:
as §1

As to `O=C(O)CNCP(=O)(O)O` [glyphosate], the “resistance results (plant condition)” value was “survived normally” in test [1]; “chlorotic and wilting to die” in test [2].
